Results from patent US10301291B2, “Imidazole derivative having JNK inhibitory activity and use thereof” (SAMJIN PHARMACEUTICAL CO., LTD., priority 2016, dated 2019).

Key:
Assay type in all cases: biochemical
various protein kinases = experiment: Inhibitory activity against various protein kinases (selectivity, whole panel); details: kinase panel, compound 10 μM
Method: (§1) An inhibitory activity of the compound (10 μM) of Example 34 against various protein kinases was measured by means of a kinase profiling service (ICso profiler express) of Reaction Biology Corp., wherein ICso, a concentration at which JNK enzyme activity was inhibited 50%, was also measured by sequentially reducing a concentration of the compound.
IC50 values of the compound of Example 34 with regard to various protein kinases were shown in a following Table 3.

JNK3 = JNK3 (Homo sapiens (Human), UniProt P53779); experiment: Measurement of JNK3 enzyme activity (33P-ATP filter-binding); details: human JNK3, ATP 10 μM, ATF2 3 μM
Method: The changes in JNK3 enzyme activity resulting from being treated with the inventive imidazole derivative (Formula 1) shown in a following Table 1 were identified through IC50.
First of all, after a substrate was inserted into a prepared base reaction buffer solution (20 mM Hepes ([…]), 10 mM MgCl2, 1 mM EGTA, 0.02% Brij35, 0.02 mg/ml BSA, 0.1 mM Na3VO4, 2 mM DTT, 1% DMSO), a human JNK3 enzyme was added into a prepared substrate solution and then mixed together. As the substrate, ATP (10 μM) and ATF2 (3 μM) were used, among which the ATP was also used as a common substrate. Then, compounds of Examples 1-18 and 25-36, which were dissolved in 100% DMSO, were inserted into an enzyme reaction solution, and then cultured at room temperature for 20 minutes. Then, ^33P-ATP was inserted into the above reaction mixture solution to initiate a reaction, then cultured at room temperature for 2 hours, and then an enzyme activity was detected by means of a filter-binding method.
Particularly, after each 25 μl of the resulting solution was slowly spotted on P81 paper, it was inserted into a scintillation vial, and washed with 0.75% phosphoric acid four times for 10 minutes each, and with acetone once for 5 minutes. 5 ml of scintillation cocktail was inserted into the above scintillation vial and a resulting signal was read by means of a scintillation counter.
IC50 values of compounds of Examples 1-18 and 25-36 with regard to JNK3 enzyme activity were shown in a following Table 2.

EGFR = EGFR (Homo sapiens (Human), UniProt P00533); experiment: Kinase profiling service (Reaction Biology Corp.); details: compound 10 μM
Method: as §1

MEK1 = MEK1 (Homo sapiens (Human), UniProt Q02750); experiment: Kinase profiling service (Reaction Biology Corp.); details: compound 10 μM
Method: as §1

Aurora A = Aurora A (Homo sapiens (Human), UniProt O14965); experiment: Kinase profiling service (Reaction Biology Corp.); details: compound 10 μM
Method: as §1

CDK1/cyclin B = CDK1/cyclin B (Homo sapiens (Human), UniProt P06493); experiment: Kinase profiling service (Reaction Biology Corp.); details: compound 10 μM
CDK1/cyclin B, sequence (P06493 whole entry): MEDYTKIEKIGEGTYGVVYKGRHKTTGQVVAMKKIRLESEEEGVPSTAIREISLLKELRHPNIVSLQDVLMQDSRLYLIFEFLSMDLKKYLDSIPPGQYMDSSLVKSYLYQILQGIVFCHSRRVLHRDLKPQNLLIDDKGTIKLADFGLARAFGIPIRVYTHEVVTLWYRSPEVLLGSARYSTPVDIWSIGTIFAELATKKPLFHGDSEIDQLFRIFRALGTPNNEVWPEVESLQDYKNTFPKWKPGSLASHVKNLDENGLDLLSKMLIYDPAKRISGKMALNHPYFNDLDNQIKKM
CDK1/cyclin B, sequence (P14635 whole entry partner): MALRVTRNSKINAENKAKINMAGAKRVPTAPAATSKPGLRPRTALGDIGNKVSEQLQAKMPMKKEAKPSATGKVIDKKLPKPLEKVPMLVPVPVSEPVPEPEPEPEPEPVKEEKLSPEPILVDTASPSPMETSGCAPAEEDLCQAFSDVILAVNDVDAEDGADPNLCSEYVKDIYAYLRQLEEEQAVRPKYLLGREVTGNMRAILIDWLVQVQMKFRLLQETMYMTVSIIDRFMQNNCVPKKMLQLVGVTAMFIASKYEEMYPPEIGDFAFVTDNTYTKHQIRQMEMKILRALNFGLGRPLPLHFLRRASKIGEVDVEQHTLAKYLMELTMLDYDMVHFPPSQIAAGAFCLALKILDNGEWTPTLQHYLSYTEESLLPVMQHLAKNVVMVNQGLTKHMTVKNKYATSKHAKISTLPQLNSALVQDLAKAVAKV
Method: as §1

AKT1 = AKT1 (Homo sapiens (Human), UniProt P31749); experiment: Kinase profiling service (Reaction Biology Corp.); details: compound 10 μM
Method: as §1

JNK1 = JNK1 (Homo sapiens (Human), UniProt P45983); experiment: Kinase profiling service (Reaction Biology Corp.); details: compound 10 μM
Method: as §1

ALK = ALK (Homo sapiens (Human), UniProt Q9UM73); experiment: Kinase profiling service (Reaction Biology Corp.); details: compound 10 μM
Method: as §1

SYK = SYK (Homo sapiens (Human), UniProt P43405); experiment: Kinase profiling service (Reaction Biology Corp.); details: compound 10 μM
Method: as §1

ERK2/MAPK1 = ERK2/MAPK1 (Homo sapiens (Human), UniProt P28482); experiment: Kinase profiling service (Reaction Biology Corp.); details: compound 10 μM
Method: as §1

MLK1/MAP3K9 = MLK1/MAP3K9 (Homo sapiens (Human), UniProt P80192); experiment: Kinase profiling service (Reaction Biology Corp.); details: compound 10 μM
Method: as §1

ABL1 = ABL1 (Homo sapiens (Human), UniProt P00519); experiment: Kinase profiling service (Reaction Biology Corp.); details: compound 10 μM
ABL1, sequence (P00519 whole entry): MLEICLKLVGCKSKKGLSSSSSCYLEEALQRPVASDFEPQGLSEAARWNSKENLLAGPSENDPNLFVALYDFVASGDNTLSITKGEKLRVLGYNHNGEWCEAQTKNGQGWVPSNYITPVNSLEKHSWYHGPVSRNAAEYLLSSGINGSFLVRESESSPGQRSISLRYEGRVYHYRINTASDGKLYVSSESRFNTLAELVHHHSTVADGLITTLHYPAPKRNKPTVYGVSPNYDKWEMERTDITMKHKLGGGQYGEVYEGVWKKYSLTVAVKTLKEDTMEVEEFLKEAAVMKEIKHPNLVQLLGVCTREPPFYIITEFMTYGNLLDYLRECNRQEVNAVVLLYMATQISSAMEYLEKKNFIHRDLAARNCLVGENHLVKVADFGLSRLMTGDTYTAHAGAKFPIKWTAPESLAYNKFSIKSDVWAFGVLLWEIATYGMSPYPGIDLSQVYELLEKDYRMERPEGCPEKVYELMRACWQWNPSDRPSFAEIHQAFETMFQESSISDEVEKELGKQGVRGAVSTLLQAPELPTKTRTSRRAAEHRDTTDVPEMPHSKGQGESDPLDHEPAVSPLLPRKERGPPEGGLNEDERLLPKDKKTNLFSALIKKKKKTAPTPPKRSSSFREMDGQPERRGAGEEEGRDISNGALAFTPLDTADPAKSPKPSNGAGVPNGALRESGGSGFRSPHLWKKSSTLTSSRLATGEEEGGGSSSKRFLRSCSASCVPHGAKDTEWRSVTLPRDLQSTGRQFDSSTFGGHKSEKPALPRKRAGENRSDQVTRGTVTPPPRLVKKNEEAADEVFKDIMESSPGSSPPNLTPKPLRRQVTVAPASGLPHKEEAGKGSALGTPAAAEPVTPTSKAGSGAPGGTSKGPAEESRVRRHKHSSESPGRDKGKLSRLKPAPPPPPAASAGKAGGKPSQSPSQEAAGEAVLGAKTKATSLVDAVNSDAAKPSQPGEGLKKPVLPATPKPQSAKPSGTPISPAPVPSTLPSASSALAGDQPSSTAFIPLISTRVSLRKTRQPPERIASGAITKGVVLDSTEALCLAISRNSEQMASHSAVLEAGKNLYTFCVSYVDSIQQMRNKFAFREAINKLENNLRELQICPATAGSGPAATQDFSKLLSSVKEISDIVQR
Method: as §1

LRRK2 = LRRK2 (Homo sapiens (Human), UniProt Q5S007); experiment: Kinase profiling service (Reaction Biology Corp.); details: compound 10 μM
Method: as §1

FAK/PTK2 = FAK/PTK2 (Homo sapiens (Human), UniProt Q05397); experiment: Kinase profiling service (Reaction Biology Corp.); details: compound 10 μM
FAK/PTK2, sequence (Q05397 whole entry): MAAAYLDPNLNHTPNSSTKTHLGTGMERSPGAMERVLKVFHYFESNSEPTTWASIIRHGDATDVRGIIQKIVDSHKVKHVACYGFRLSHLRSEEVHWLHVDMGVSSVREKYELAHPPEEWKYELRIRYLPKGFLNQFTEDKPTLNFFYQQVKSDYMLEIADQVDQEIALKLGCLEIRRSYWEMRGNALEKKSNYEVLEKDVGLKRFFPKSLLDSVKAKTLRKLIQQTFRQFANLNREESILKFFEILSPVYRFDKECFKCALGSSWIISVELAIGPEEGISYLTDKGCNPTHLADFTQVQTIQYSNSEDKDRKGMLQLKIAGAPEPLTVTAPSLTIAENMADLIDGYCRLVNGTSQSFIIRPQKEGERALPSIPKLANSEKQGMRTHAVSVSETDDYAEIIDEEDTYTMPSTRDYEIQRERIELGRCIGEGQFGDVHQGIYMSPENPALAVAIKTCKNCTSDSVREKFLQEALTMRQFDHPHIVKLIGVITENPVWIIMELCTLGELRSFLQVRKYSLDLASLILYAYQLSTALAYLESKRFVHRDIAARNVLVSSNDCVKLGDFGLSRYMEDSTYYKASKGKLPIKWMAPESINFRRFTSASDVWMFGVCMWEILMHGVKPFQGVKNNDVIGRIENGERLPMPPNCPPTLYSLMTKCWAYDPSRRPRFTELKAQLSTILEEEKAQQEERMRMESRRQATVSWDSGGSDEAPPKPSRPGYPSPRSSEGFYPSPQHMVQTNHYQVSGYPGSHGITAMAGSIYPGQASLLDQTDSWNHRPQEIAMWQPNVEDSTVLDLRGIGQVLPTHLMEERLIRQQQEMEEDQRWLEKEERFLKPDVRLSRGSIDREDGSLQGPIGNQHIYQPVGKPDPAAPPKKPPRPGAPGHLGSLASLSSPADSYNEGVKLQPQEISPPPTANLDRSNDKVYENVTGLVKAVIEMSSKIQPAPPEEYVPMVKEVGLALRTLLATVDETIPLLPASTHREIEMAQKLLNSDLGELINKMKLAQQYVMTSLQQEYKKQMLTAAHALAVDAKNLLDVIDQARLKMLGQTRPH
Method: as §1

PKA = PKA (Homo sapiens (Human), UniProt P17612); experiment: Kinase profiling service (Reaction Biology Corp.); details: compound 10 μM
Method: as §1

KDR/VEGFR2 = KDR/VEGFR2 (Homo sapiens (Human), UniProt P35968); experiment: Kinase profiling service (Reaction Biology Corp.); details: compound 10 μM
KDR/VEGFR2, sequence (P35968 20-1356): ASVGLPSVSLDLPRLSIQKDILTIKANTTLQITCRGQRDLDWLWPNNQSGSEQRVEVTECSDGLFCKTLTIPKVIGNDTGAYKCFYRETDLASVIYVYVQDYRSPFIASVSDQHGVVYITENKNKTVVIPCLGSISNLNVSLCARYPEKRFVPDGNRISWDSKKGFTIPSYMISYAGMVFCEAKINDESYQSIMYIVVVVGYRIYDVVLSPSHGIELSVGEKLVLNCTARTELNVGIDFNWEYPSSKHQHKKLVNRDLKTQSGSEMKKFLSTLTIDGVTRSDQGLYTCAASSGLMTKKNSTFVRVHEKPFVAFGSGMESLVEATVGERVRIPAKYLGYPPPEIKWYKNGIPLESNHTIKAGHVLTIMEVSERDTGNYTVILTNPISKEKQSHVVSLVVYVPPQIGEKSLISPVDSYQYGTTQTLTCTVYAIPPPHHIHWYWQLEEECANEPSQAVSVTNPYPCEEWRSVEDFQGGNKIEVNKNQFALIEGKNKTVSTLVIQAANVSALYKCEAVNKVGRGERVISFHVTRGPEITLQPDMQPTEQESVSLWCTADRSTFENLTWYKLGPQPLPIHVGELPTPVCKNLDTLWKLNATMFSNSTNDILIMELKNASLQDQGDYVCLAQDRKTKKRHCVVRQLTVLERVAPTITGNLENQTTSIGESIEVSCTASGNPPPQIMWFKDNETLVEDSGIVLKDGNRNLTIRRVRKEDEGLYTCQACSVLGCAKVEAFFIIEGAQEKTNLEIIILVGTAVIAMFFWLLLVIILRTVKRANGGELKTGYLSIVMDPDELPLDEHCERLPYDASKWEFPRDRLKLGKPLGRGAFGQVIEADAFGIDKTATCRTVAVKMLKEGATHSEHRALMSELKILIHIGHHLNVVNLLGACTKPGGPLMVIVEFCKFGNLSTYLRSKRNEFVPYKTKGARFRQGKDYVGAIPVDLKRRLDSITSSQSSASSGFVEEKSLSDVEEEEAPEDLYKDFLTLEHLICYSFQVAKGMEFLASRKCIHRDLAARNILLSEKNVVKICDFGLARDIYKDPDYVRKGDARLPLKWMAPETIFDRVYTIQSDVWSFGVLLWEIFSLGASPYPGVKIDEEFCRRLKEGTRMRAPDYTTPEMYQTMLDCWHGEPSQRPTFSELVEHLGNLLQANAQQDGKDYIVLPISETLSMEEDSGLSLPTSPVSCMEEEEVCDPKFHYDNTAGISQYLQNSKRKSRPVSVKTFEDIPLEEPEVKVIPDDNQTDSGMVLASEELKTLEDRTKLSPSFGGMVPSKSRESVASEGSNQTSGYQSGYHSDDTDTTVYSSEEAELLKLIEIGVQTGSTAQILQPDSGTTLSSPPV
Method: as §1

c-Kit = c-Kit (Homo sapiens (Human), UniProt P10721); experiment: Kinase profiling service (Reaction Biology Corp.); details: compound 10 μM
Method: as §1

c-Src = c-Src (Homo sapiens (Human), UniProt P12931); experiment: Kinase profiling service (Reaction Biology Corp.); details: compound 10 μM
Method: as §1

mTOR/FRAP1 = mTOR/FRAP1 (Homo sapiens (Human), UniProt P42345); experiment: Kinase profiling service (Reaction Biology Corp.); details: compound 10 μM
Method: as §1

PLK1 = PLK1 (Homo sapiens (Human), UniProt P53350); experiment: Kinase profiling service (Reaction Biology Corp.); details: compound 10 μM
PLK1, sequence (P53350 whole entry): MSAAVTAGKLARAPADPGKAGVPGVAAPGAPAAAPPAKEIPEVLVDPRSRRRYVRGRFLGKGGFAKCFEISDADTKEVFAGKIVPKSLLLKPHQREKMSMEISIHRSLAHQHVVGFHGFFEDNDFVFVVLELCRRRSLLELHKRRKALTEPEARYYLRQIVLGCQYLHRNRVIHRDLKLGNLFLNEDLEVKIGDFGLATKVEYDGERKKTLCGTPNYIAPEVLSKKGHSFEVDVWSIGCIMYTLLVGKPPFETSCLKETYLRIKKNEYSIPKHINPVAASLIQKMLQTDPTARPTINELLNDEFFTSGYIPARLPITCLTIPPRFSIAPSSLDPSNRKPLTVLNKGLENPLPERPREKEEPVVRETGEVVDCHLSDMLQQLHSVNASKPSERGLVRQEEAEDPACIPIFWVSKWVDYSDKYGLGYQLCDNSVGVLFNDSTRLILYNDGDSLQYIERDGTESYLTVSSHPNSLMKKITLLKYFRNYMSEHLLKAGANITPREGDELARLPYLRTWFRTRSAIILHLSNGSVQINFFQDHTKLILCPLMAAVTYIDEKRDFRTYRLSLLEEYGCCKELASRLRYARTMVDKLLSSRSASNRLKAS
Method: as §1

FMS = FMS (Homo sapiens (Human), UniProt P07333); experiment: Kinase profiling service (Reaction Biology Corp.); details: compound 10 μM
Method: as §1

IGF1R = IGF1R (Homo sapiens (Human), UniProt P08069); experiment: Kinase profiling service (Reaction Biology Corp.); details: compound 10 μM
Method: as §1

ERK1 = ERK1 (Homo sapiens (Human), UniProt P27361); experiment: Kinase profiling service (Reaction Biology Corp.); details: compound 10 μM
Method: as §1

FGFR3 = FGFR3 (Homo sapiens (Human), UniProt P22607); experiment: Kinase profiling service (Reaction Biology Corp.); details: compound 10 μM
Method: as §1

JNK2 = JNK2 (Homo sapiens (Human), UniProt P45984); experiment: Kinase profiling service (Reaction Biology Corp.); details: compound 10 μM
Method: as §1

[1] = Data 1 and Data 2, read-out: % Enzyme Activity (relative to DMSO controls)

- IC50 (JNK3): < 30 nM
- % Enzyme Activity (relative to DMSO controls) (EGFR; Data 1 and Data 2): 67.11%
- remaining activity at 10 µM (EGFR; [1]): 68.4%
- % Enzyme Activity (relative to DMSO controls) (MEK1; Data 1 and Data 2): 104.84%
- remaining activity at 10 µM (MEK1; [1]): 105%
- % Enzyme Activity (relative to DMSO controls) (Aurora A; Data 1 and Data 2): 101.98%
- remaining activity at 10 µM (Aurora A; [1]): 102%
- % Enzyme Activity (relative to DMSO controls) (CDK1/cyclin B; Data 1 and Data 2): 90.33%
- remaining activity at 10 µM (CDK1/cyclin B; [1]): 90.7%
- % Enzyme Activity (relative to DMSO controls) (AKT1; Data 1 and Data 2): 99.04%
- remaining activity at 10 µM (AKT1; [1]): 103%
- % Enzyme Activity (relative to DMSO controls) (JNK1; Data 1 and Data 2): 2.84%
- remaining activity at 10 µM (JNK1; [1]): 3.04%
- % Enzyme Activity (relative to DMSO controls) (ALK; Data 1 and Data 2): 97.85%
- remaining activity at 10 µM (ALK; [1]): 98%
- % Enzyme Activity (relative to DMSO controls) (SYK; Data 1 and Data 2): 97.43%
- remaining activity at 10 µM (SYK; [1]): 98.1%
- % Enzyme Activity (relative to DMSO controls) (ERK2/MAPK1; Data 1 and Data 2): 97.70%
- remaining activity at 10 µM (ERK2/MAPK1; [1]): 98%
- % Enzyme Activity (relative to DMSO controls) (MLK1/MAP3K9; Data 1 and Data 2): 93.90%
- remaining activity at 10 µM (MLK1/MAP3K9; [1]): 95.7%
- % Enzyme Activity (relative to DMSO controls) (ABL1; Data 1 and Data 2): 94.12%
- remaining activity at 10 µM (ABL1; [1]): 95.3%
- % Enzyme Activity (relative to DMSO controls) (LRRK2; Data 1 and Data 2): 95.95%
- remaining activity at 10 µM (LRRK2; [1]): 96.3%
- % Enzyme Activity (relative to DMSO controls) (FAK/PTK2; Data 1 and Data 2): 99.94%
- remaining activity at 10 µM (FAK/PTK2; [1]): 101%
- % Enzyme Activity (relative to DMSO controls) (PKA; Data 1 and Data 2): 96.45%
- remaining activity at 10 µM (PKA; [1]): 97.3%
- % Enzyme Activity (relative to DMSO controls) (KDR/VEGFR2; Data 1 and Data 2): 73.81%
- remaining activity at 10 µM (KDR/VEGFR2; [1]): 74.1%
- % Enzyme Activity (relative to DMSO controls) (c-Kit; Data 1 and Data 2): 92.65%
- remaining activity at 10 µM (c-Kit; [1]): 93.4%
- % Enzyme Activity (relative to DMSO controls) (c-Src; Data 1 and Data 2): 92.54%
- remaining activity at 10 µM (c-Src; [1]): 94%
- % Enzyme Activity (relative to DMSO controls) (mTOR/FRAP1; Data 1 and Data 2): 101.65%
- remaining activity at 10 µM (mTOR/FRAP1; [1]): 105%
- % Enzyme Activity (relative to DMSO controls) (PLK1; Data 1 and Data 2): 97.02%
- remaining activity at 10 µM (PLK1; [1]): 98.8%
- % Enzyme Activity (relative to DMSO controls) (FMS; Data 1 and Data 2): 93.11%
- remaining activity at 10 µM (FMS; [1]): 93.7%
- % Enzyme Activity (relative to DMSO controls) (IGF1R; Data 1 and Data 2): 92.45%
- remaining activity at 10 µM (IGF1R; [1]): 93.1%
- % Enzyme Activity (relative to DMSO controls) (ERK1; Data 1 and Data 2): 97.98%
- remaining activity at 10 µM (ERK1; [1]): 98.5%
- % Enzyme Activity (relative to DMSO controls) (FGFR3; Data 1 and Data 2): 91.29%
- remaining activity at 10 µM (FGFR3; [1]): 91.4%
- % Enzyme Activity (relative to DMSO controls) (JNK2; Data 1 and Data 2): 1.40%
- remaining activity at 10 µM (JNK2; [1]): 1.41%
SMILES: N#CCc1cnc(-c2ccc3ccccc3c2)n1-c1ccnc(NC2CCCN(C(=O)C3CC3)C2)n1 (centres unmarked) [Example 34, 2-(1-(2-(1-(cyclopropanecarbonyl)piperidine-3-ylamino)pyrimidine-4-yl)-2-(naphthalene-2-yl)-1H-imidazole-5-yl)acetonitrile]
- selectivity for JNK1/2/3 over other protein kinases (in words) (various protein kinases): selectively inhibiting an activity of JNK1/2/3
